Laboratory results published in ChEMBL document CHEMBL1127879, “A conformationally restrained series of AT1-selective angiotensin II antagonists” (Bioorg Med Chem Lett, 1994).

Target: T1, Angiotensin II receptor (AT-1) type-1 (Rattus norvegicus, UniProt P29089+P25095)
T1 sequence (P29089 whole entry): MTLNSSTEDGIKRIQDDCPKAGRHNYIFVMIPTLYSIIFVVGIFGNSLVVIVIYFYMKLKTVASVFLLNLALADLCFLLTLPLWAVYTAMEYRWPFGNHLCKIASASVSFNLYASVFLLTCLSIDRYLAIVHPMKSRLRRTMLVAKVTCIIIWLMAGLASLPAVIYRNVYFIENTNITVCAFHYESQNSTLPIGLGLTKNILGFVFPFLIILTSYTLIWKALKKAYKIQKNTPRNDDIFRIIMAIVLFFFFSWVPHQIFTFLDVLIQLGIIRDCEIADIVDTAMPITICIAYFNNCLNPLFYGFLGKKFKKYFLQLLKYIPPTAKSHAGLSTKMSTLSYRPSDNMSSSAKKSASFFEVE
T1 sequence (P25095 whole entry): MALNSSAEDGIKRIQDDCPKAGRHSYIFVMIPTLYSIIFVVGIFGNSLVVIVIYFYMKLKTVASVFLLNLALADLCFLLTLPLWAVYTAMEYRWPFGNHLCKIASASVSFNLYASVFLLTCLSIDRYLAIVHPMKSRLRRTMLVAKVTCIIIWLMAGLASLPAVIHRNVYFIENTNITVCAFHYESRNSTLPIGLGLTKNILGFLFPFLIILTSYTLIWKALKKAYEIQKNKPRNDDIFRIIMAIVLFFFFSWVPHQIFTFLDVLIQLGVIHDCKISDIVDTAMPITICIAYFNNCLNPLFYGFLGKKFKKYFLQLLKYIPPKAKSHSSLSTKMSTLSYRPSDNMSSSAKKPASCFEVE
Experiment: Binding affinity against Angiotensin II receptor, type 1 using [125I]Sar-Ile8-AII in rat liver membranes
Format: cell membranes, Membrane

| SMILES | IC50 [µM] |
| --- | --- |
| CCCCc1nc2c(C)cc(C)nc2n1C1CCc2cc(-c3ccccc3-c3nn[nH]n3)ccc21 (stereo not drawn) | 0.03 |
| CCc1nc2c(C)ccnc2n1C1CCc2cc(-c3ccccc3-c3nn[nH]n3)ccc21 (stereo not drawn) | 0.12 |
| CCc1nc2c(C)cc(C)nc2n1C1CCCc2cc(-c3ccccc3-c3nn[nH]n3)ccc21 (stereo not drawn) | 0.12 |
| Cc1cc(C)c2nc(C3CC3)n(C3CCc4cc(-c5ccccc5-c5nn[nH]n5)ccc43)c2n1 (stereo not drawn) | 0.0002 |
| CCc1nc2c(C)cc(C)nc2n1C1CCc2cc(-c3ccccc3-c3nn[nH]n3)ccc21 (stereo not drawn) | 0.011 |
| CCc1nc2c(C)cc(C)nc2n1C1CCCCc2cc(-c3ccccc3-c3nn[nH]n3)ccc21 (stereo not drawn) | 0.22 |
| Cc1cc(C)c2nc(C(C)C)n(C3CCc4cc(-c5ccccc5-c5nn[nH]n5)ccc43)c2n1 (stereo not drawn) | 0.07 |
| CCCc1nc2c(C)cc(C)nc2n1C1CCc2cc(-c3ccccc3-c3nn[nH]n3)ccc21 (stereo not drawn) | 0.014 |
